Reference: US12590099B2, “Inhibitors of histone deacetylase useful for the treatment or prevention of HIV infection” (Merck Sharp & Dohme LLC, priority 2018, dated 2026)
pIC50: −log10 of the molar value. Where two headings read alike, the source gives them in different places.

What was measured:
HDAC6 = target: T1, HDAC6 (Homo sapiens, UniProt Q9UBN7); test: Human HDAC enzyme inhibitor Fluor-de-Lys assay, HDAC6; type: biochemical; conditions: HDAC6, Fluor-de-Lys assay
T1 sequence (Q9UBN7 1-1215): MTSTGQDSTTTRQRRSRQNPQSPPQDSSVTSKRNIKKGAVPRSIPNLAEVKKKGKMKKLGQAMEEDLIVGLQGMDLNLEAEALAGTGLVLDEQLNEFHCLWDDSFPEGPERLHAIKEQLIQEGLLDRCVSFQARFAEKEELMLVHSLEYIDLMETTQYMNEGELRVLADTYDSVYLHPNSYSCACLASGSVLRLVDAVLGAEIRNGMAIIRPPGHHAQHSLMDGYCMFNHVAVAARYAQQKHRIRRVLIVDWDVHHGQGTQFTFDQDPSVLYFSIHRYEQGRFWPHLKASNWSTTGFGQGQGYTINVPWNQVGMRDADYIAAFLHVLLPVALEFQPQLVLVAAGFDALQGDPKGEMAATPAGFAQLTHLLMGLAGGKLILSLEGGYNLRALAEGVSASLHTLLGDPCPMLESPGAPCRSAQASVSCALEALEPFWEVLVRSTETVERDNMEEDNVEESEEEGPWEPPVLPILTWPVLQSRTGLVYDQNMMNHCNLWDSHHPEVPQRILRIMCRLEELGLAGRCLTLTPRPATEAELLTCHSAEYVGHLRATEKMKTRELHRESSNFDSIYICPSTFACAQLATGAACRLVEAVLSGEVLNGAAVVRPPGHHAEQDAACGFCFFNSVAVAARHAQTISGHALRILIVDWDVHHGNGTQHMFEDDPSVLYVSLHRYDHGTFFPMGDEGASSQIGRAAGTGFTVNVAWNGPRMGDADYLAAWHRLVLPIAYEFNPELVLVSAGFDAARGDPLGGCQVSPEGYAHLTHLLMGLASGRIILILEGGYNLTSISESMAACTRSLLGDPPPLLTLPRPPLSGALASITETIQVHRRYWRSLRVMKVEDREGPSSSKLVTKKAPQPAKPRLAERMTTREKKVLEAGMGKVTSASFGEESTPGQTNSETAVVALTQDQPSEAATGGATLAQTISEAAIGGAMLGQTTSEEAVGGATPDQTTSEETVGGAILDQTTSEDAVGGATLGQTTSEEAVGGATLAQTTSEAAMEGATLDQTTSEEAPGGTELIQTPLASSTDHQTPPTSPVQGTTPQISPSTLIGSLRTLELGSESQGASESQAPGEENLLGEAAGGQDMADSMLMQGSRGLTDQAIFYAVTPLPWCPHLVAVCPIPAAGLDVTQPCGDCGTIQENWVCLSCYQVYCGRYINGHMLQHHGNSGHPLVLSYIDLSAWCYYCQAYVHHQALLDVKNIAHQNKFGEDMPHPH

Recombinant human HDAC8 = target: T2, Recombinant human HDAC8 (Homo sapiens, UniProt Q9BY41); test: Human HDAC enzyme inhibitor Fluor-de-Lys assay, HDAC8; type: biochemical; conditions: recombinant human HDAC8, Fluor-de-Lys assay
T2 construct: purchased Enzo Life Sciences BML-SE145-0100
T2 sequence (Q9BY41 1-377): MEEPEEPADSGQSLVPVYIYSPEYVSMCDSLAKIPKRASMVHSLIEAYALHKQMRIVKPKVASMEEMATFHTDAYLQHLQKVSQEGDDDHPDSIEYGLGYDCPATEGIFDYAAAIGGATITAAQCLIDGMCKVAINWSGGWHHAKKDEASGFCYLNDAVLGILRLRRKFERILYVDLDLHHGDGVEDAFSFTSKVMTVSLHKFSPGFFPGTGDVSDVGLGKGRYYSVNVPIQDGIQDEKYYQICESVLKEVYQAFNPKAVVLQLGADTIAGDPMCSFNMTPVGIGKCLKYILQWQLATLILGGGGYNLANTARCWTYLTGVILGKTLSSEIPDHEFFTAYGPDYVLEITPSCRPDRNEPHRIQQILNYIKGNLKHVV

KARN cells (Jurkat 2C4) = test: cells; type: cell-based; conditions: Homo sapiens, Jurkat, luciferase induction, 100% = 2 μM SAHA
In short: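 Luminescence (Steady-Glo, 10 min, room temperature) measured next day in KARN Jurkat 2C4 cells given compounds at up to 40 μM final with 0.4% DMSO. Percent activation normalised to DMSO (0%) and 2 μM SAHA (100%), fitted by 4-parameter curve.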

[1] = read-out: Karn EC50 (nM) 0.1% NHS, 0.1% normal human serum
[2] = read-out: Karn EC50 (nM) 5% NHS, 5% normal human serum

Compound | pIC50 (HDAC6) | pIC50 (Recombinant human HDAC8) | EC50 (KARN cells (Jurkat 2C4); [1]) [nM] | EC50 (KARN cells (Jurkat 2C4); [2]) [nM]
CCC(=O)CCCCC[C@H](NC(=O)[C@H]1CC12CCN(CCC(F)(F)F)CC2)c1ncc(-c2cc3ccccc3nc2OC)[nH]1 [Compound 332] | 6.13 | 4.85 | 78 | 343
CCC(=O)CCCCC[C@H](NC(=O)[C@H]1CC12CCN(CC(F)(F)F)CC2)c1ncc(-c2cc3ccccc3nc2OC)[nH]1 [Compound 333] | 5.96 | 5.22 | 113 | 719
CCC(=O)CCCCC[C@H](NC(=O)[C@H]1CC12CCN(CC(C)C)CC2)c1ncc(-c2cc3ccccc3nc2OC)[nH]1 [Compound 335] | 6.48 | 5.48 | 31 | 63
CCC(=O)CCCCC[C@H](NC(=O)[C@H]1CC12CCN(CC1CC1)CC2)c1ncc(-c2cc3ccccc3nc2OC)[nH]1 [Compound 336] | 6.72 | 5.50 | 16 | 30
CCC(=O)CCCCC[C@H](NC(=O)[C@H]1CC12CCN(C(C)C)CC2)c1ncc(-c2cc3ccccc3nc2OC)[nH]1 [Compound 337] | 6.80 | 5.25 | 32 | 57
CCC(=O)CCCCC[C@H](NC(=O)[C@H]1CCC12CCN(CC)CC2)c1ncc(-c2cc3ccccc3nc2OC)[nH]1 [Compound 338] | 6.39 | 5.53 | 44 | 111
CCC(=O)CCCCC[C@H](NC(=O)[C@H]1CC12CCN(CC)CC2)c1ncc(-c2ccc3cccnc3c2)[nH]1 [Compound 344] | 6.06 | 5.47 | 37 | 54
CCC(=O)CCCCC[C@H](NC(=O)[C@H]1CC12CCN(CC)CC2)c1ncc(-c2ccc3ncccc3c2)[nH]1 [Compound 346] | 6.26 | 5.50 | 46 | 57
CCC(=O)CCCCC[C@H](NC(=O)[C@H]1CC12CCN(CC1CC1)CC2)c1ncc(-c2cc3cccnc3cc2OC)[nH]1 [Compound 394] | 7.12 | < 6.05 | 18 | 24
